Laboratory results reported in patent US20100093861A1, “TREATMENT OF INSULIN RESISTANCE OR DISEASES ASSOCIATED WITH INSULIN RESISTANCE” (Stevia ApS, priority 2006, published 2010).

Legend:
PDX-1 = assay: Gene expression in islets from diabetic KKAy-mice, real time RT-PCR (Example 2): PDX-1; type: in vivo; conditions: islets of KKAy-mice after nine weeks treatment, normalized to 18S rRNA
Description: A the end of the nine week period of the in vivo study in example 1 RNA was purified from Islets, muscle, liver and fat from the three experimental groups, using standard techniques as described in Kiergen, RNA easy.
Gene expression of PDX-1, IRS1, Beta2, 11beta-HSD-1, Akt1, C/EBP-alpha, CPT1, GLUT2, IGF1, IR and Ins1 was measured with Real time RT-PCR using Taq Man Assays normalized to 18S rRNA, using the standard protocol (ABI, USA). All reagents were obtained from (ABI, USA). All probes are standard probes obtainable from ABI, USA, under the specific probe code number, given in respect of each gene.

Foxa2 = assay: Affymetrix gene chip analysis of KKAy islets: Foxa2; type: in vivo, mice; conditions: ISV vs. KKAy control islets, 9 weeks
Description: (§1) cRNA preparation and in vitro transcription: In total 6 Affymetrix arrays MOE430 2.0 probe array cartridge were used i.e. for analysis of 3 replicas for the KKAy control group and the ISV group, respectively. Each of the 6 samples consisted of pooled RNA from 3-4 KKAy mice. Preparation of target for hybridization was prepared from 340 ng of total RNA using MessageAmp™ II aRNA Amplification Kits (Ambion), according to the manufacturers instructions. Arrays were hybridised and scanned as described elsewhere (Kruhoffer et al., 2005).

Akt1 = assay: Affymetrix gene chip analysis of KKAy islets: Akt1; type: in vivo, mice; conditions: ISV vs. KKAy control islets, 9 weeks
Description: as §1

C[C@@]12CC[C@@H]3[C@@](CC[C@H]4[C@@]3(C)CCC[C@@]4(C)C(=O)O)(CC1=O)C2 (single isomer, unassigned; ent-16) [ISV, ent-16-ketobeyeran-19-oic acid]
increased expression of PDX-1 compared to standard diet (PDX-1): 96%
array: increased expression in Foxa2 (Foxa2): 1.9 fold
array: change of Akt1 expression (Akt1): no changes
